Peptide text beside a SMILES is read from it.
Details: mouse, in vivo, iv, 3 mg/kg
From the text: Male CD-1 mice will be received from an approved vendor and allowed to acclimate for a minimum of two days. Fasting will be not required.
All dosing syringes will be weighed prior to and following dosing. IV doses will be administered as a slow bolus (over ˜30 seconds) via direct venipuncture of a tail vein. All animals will be observed at dosing and each scheduled collection. All abnormalities will be recorded.
Terminal blood samples will be collected via cardiac puncture following inhalation anesthesia.
Sample Processing and Storage: Blood samples will be collected into K2EDTA tubes and stored on wet ice. Whole blood will be processed to plasma by centrifugation (3500 rpm at 5° C.) within 30 minutes of collection. Plasma samples will be split into 2 equal aliquots and each transferred into 96 well plates (matrix tubes) and stored at −80° C. until analysis. Administered doses will be determined gravimetrically.
Prior to extraction, a known concentration of a mass-adjusted internal standard (IS) will be added to assess recovery and allow for quantitation. Purified samples will be further subjected to high-performance liquid chromatography (HPLC) using C18 300 or 130 angstrom columns prior to MS/MS analysis. Multiple charge states will be observed by MS, so MS/MS will be employed to enable multiple reaction monitoring (MRM) analyses to determine the most MRM transitions with the highest signal-to-noise gain. Compound plasma concentrations will be determined by comparing to and compensating with co-purified IS peak intensity and validated calibrated standard curves.
Pharmacokinetic parameters will be calculated using non-compartmental methods as implemented in the Phoenix® WinNonlin® ver. 6.3 comprehensive TK/PK analysis software program (Pharsight Corporation; Mountain View, CA) using an IV infusion model. Pharmacokinetic analysis will be conducted using a 30-minute intravenous infusion time. Therefore, 30 minutes will be added to each sample time point postdose to obtain nominal time for TK analysis. Nominal times and dosage levels will be used for all calculations. Values below the lower limit of quantitation (BLQ) will be assigned a value of zero for the pharmacokinetic calculations. Microsoft® Excel® 2013 will be used for receipt of bioanalytical data, minor formatting, including setting BLQ values to “0”, transfer into WinNonlin® for PK analysis, and calculation of the mean when an approximated value will be excluded. All plasma concentration data from all animals will be included in the analysis. Graphical presentations will be performed using Microsoft® Excel® 2013.

Work on `CC(C)[C@H](NC(=O)[C@H](Cc1c[nH]c2ccccc12)NC(=O)[C@H](CCCNC(=N)N)NC(=O)[C@H](CCCNC(=N)N)NC(=O)[C@@H](NC(=O)[C@@H](NC(=O)[C@H](CCCNC(=N)N)NC(=O)[C@@H](NC(=O)[C@@H](NC(=O)[C@H](CCCNC(=N)N)NC(=O)[C@H](CCCNC(=N)N)NC(=O)[C@H](Cc1c[nH]c2ccccc12)NC(=O)[C@@H](NC(=O)[C@H](CCCNC(=N)N)NC(=O)[C@H](CCCNC(=N)N)NC(=O)[C@@H](NC(=O)[C@H](CCCNC(=N)N)NC(=O)[C@H](CCCNC(=N)N)NC(=O)[C@@H](NC(=O)[C@H](Cc1c[nH]c2ccccc12)NC(=O)[C@H](CCCNC(=N)N)NC(=O)[C@@H](N)CCCNC(=N)N)C(C)C)C(C)C)C(C)C)C(C)C)C(C)C)C(C)C)C(C)C)C(=O)N[C@@H](CCCNC(=N)N)C(=O)N[C@@H](CCCNC(=N)N)C(N)=O` [SEQ ID NO: 1] (H-RRWVRRVRRVWRRVVRVVRRWVRR-NH2) yielded a Tmax of 2 min.
